For data set [1], the system named is T2 cell lines loaded with bacterial peptide or human counterpart peptide. Briefly: Cytotoxic assay of peptide-specific CD8+ T cells against peptide-loaded T2 cells. The class given is cell-based. An excerpt: CD8+ T cells expanded per above were used to perform cytotoxic assays in presence of different ratios of target and effector cells to assess their cytotoxic capacity, using flow cytometry readout. Target cells were T2 cell lines loaded with bacterial peptide or human counterpart peptide. As a negative control T2 cells unloaded and T2 cells loaded with irrelevant peptide were employed.

In the next data set the target is T1, HLA-A*0201 (Homo sapiens, UniProt P04439, D140Y/D185E/D98H/E176V/E277Q/G131W/G231S/I119V/I121R/I166T/I218V/L300P/L318F/N151K/N90K/P208A/P217A/Q86G/Q94H/R138H/R169H/T345S).
T1 construct: human tumoral cell T2 which expresses the HLA-A*0201 molecule; endogenous in cells; host or cells: T2 cells (human, TAP1/2 negative)
Briefly: Affinity of the peptide to T2 cell line (HLA-A*0201 binding, FACS with anti-HLA-A2 antibody). The following applies: T2 cells. On the procedure: T2 cells (5·10^4 cells per well) are incubated with decreasing concentrations of peptides from 100 μM to 0.1 μM (4 points: 100 μM, 10 μM, 1 μM, 0.1 μM) in serum-free medium (TexMacs) supplemented with 100 ng/μl of 2 Microglobulin at 37° C. for 16 hours.
The analysis is achieved by FACS (Macsquant analyzer 10 or a Macsquant analyzer 16-Miltenyi).

[2] abbreviates: T cell clones expanded in vitro, flow cytometry readout (FIG. 18).

Read-outs that look alike come from different tables or passages of the source. Where no end group is shown, it is not given here.

For the sequence SLPDRILTV [CDC20-B1], in data set [1], the “cytotoxic capacity of peptide-specific T cells against T2 cells loaded with bacterial or human peptides” value is “have the ability to kill T2 cells loaded with bacterial or human peptides”, the “cytotoxic capacity of peptide-specific human T cell clones against T2 cells loaded with the bacteria peptide” value (shortened to “cytotoxic capacity … with the bacteria peptide”) was “have the capacity to kill T2 cells” and the “cytotoxic capacity of peptide-specific human T cell clones against T2 cells loaded with the human peptide” value (“cytotoxic capacity … with the human peptide” below) is listed as “able to kill T2 cells loaded with the human”.
As for FLYDVRTYL [UBE2C-B1], in data set [1] (setting [2]), the “cytotoxic capacity … with the bacteria peptide” value is recorded as “have the capacity to kill T2 cells” and the “cytotoxic capacity … with the human peptide” value was “able to kill T2 cells loaded with the human”. The “cytotoxic capacity of peptide-specific T cells against T2 cells loaded with bacterial or human peptides” value in data set [1] (legend of FIG. 18) is listed as “have the ability to kill T2 cells loaded with bacterial or human peptides”.
With ALNPELLAL [KIF2C-B1, ALNPELLAL], in data set [1], the “cytotoxic capacity of peptide-specific T cells against T2 cells loaded with bacterial or human peptides” value is on record as “have the ability to kill T2 cells loaded with bacterial or human peptides”, the “cytotoxic capacity … with the bacteria peptide” value is “have the capacity to kill T2 cells” and the “cytotoxic capacity … with the human peptide” value is “able to kill T2 cells loaded with the human”.
As to “AINPELLQL (listed as Homo sapiens) [KIF2C-H1]”, the “Concentration of peptide that induces 20% of HLA-A2 expression” value in the data set with HLA-A*0201 turned out to be 22.55 µM.
Still for that read-out and setting: with IVWSDVTYV [MMP11-B1] the figure was 0.08 µM; with “RLQQELMTL (listed as Homo sapiens) [UBE2C-H3]”, 1.06 µM; with “SLDQKLFQL (listed as Homo sapiens) [ANKRD30A-H3]”, 0.32 µM.

The values above are taken from patent US20250205324A1, “ANTIGENIC PEPTIDES FOR PREVENTION AND TREATMENT OF CANCER” (ENTEROME S.A., priority 2022, published 2025).
